This note sets out measurements from ChEMBL document CHEMBL1146650, “1,7-annulated indolocarbazoles as cyclin-dependent kinase inhibitors” (Bioorg Med Chem Lett, 2004).

Molecules are shown by their SMILES.

The target in test [1] is Cyclin-dependent kinase 4/cyclin D1 (Homo sapiens, UniProt P11802). Briefly: Inhibitory activity against human Cyclin D1-cyclin-dependent kinase 4 activity. The class given is protein-complex assay.
In test [2] the target is Cyclin-dependent kinase 2/cyclin E (Homo sapiens, UniProt P24941). Kind of test: Inhibition of human Cyclin E-cyclin-dependent kinase 2. Format: protein-complex assay.
A further test deals with HCT-116. Briefly: Cytotoxic activity against human colon HCT116 cell line. The class given is functional, cell-based.
The target of test [3] is Cyclin-dependent kinase 4 (Homo sapiens, UniProt P11802). Briefly: Inhibition of Cyclin-dependent kinase 4.
Test [4] deals with Cyclin-dependent kinase 2 (Homo sapiens, UniProt P24941). Briefly: Inhibition of Cyclin-dependent kinase 2.

Cyclin-dependent kinase 4/cyclin D1, sequence (P11802 whole entry): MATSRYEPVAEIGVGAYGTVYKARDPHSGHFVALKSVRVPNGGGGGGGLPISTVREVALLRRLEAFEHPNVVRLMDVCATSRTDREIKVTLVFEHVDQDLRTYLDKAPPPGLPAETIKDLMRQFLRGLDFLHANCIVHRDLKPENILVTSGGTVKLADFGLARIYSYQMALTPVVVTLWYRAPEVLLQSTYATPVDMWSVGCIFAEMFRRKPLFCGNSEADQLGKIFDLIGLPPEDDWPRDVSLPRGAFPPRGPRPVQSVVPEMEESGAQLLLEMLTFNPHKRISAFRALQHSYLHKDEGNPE
Cyclin-dependent kinase 4/cyclin D1, sequence (P24385 whole entry, further chain): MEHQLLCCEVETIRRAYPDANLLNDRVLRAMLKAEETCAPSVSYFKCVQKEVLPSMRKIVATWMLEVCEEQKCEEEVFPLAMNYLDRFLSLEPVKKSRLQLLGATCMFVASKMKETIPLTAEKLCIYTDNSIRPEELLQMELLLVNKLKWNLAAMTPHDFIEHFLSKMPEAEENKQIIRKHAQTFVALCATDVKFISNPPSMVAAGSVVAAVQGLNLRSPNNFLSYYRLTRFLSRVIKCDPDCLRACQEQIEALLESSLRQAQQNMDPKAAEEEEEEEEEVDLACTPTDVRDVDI
Cyclin-dependent kinase 4, sequence (P11802 whole entry): as the sequence (P11802 whole entry) above

For `O=C1NC(=O)c2c1c1c3ccccc3[nH]c1c1c2c2cccc3c2n1CCCCC3`, the IC50 in test [1] was 0.12 µM; in test [2], over 2 µM; in the test with HCT-116 it was 1.25 µM.

As for `O=C1NC(=O)c2c1c1c3ccc(CN4CCSCC4)cc3[nH]c1c1c2c2cccc3c2n1CCC3`, the IC50 is 0.09 µM in test [1] and 0.6 µM with HCT-116.

For `O=C1NC(=O)c2c1c1c3ccccc3[nH]c1c1c2c2cccc3c2n1CCCC3`, the figures for the IC50 (in test [1]; in test [2]; in the test with HCT-116) were 0.094 µM, 1 µM and 5.16 µM, respectively.

As to `O=C1NC(=O)c2c1c1c3ccc(-c4cccnc4)cc3[nH]c1c1c2c2cccc3c2n1CCC3`, the IC50 is 0.16 µM in test [1] and 1.13 µM in the test on HCT-116.

`COC(=O)c1ccc2[nH]c3c(c4c(c5c6cccc7c6n(c35)CCC7)C(=O)NC4=O)c2c1` showed an IC50 in test [1] of over 2 µM.

On to `COC(=O)c1ccc2c(c1)[nH]c1c2c2c(c3c4cccc5c4n(c13)CCC5)C(=O)NC2=O`, for which the IC50 in test [1] was over 2 µM.

For `O=C1NC(=O)c2c1c1c3cc(F)ccc3[nH]c1c1c2c2cccc3c2n1CCC3`, the IC50 in test [1] was over 2 µM.

`O=C1NC(=O)c2c1c1c3ccc(CN4CCOCC4)cc3[nH]c1c1c2c2cccc3c2n1CCC3`: the IC50 in test [1] was 0.075 µM; in the test on HCT-116, 0.37 µM.

Turning to `O=C1NC(=O)c2c1c1c([nH]c3cccc(F)c31)c1c2c2cccc3c2n1CCC3`, in test [1], the IC50 is over 2 µM.

In the case of `O=C1NC(=O)c2c1c1c3ccccc3n3c1c1c2c2ccccc2n1[C@H]1CC[C@@H]3O1`, the IC50 in test [3] was 0.68 µM; in test [4], 0.54 µM.

`O=C1NC(=O)c2c1c1c3ccc(CO)cc3[nH]c1c1c2c2cccc3c2n1CCC3`: the results for the IC50 (in test [1]; with HCT-116) were 0.052 µM and 0.34 µM, respectively.

`O=C1NC(=O)c2c1c1c3cc(Br)ccc3[nH]c1c1c2c2cccc3c2n1CCC3` displayed an IC50 in test [1] of over 2 µM.

Turning to `O=C1NC(=O)c2c1c1c3ccccc3[nH]c1c1c2c2cccc3c2n1CC3`, the values for the IC50 (in test [1]; in test [2]; with HCT-116) were 0.24 µM, over 2 µM and 1.02 µM, respectively.

As for `NCc1ccc2c(c1)[nH]c1c2c2c(c3c4cccc5c4n(c13)CCC5)C(=O)NC2=O`, the IC50 in test [1] is 0.17 µM; in the test on HCT-116, 2.26 µM.

Turning to `O=C1NC(=O)c2c1c1c3ccc(-c4ccncc4)cc3[nH]c1c1c2c2cccc3c2n1CCC3`, the IC50 in test [1] amounted to 0.59 µM; in the test with HCT-116 it was 3.29 µM.

For `O=C1NC(=O)c2c1c1c3ccc(Br)cc3[nH]c1c1c2c2cccc3c2n1CCC3`, the IC50 in test [1] amounted to 0.09 µM; in test [2], 1 µM; with HCT-116, 2.3 µM.

In turn, `O=C1NC(=O)c2c1c1c3cc(F)c(F)cc3[nH]c1c1c2c2cccc3c2n1CCC3` registered an IC50 in test [1] of over 2 µM.

With `O=C1NC(=O)c2c1c1c3ccc(F)cc3[nH]c1c1c2c2cccc3c2n1CCC3`, the IC50 is 0.42 µM in test [1], over 0.2 µM in test [2] and 2.37 µM in the test on HCT-116.

`O=C1NC(=O)c2c1c1c3ccc(CN4CCCCC4)cc3[nH]c1c1c2c2cccc3c2n1CCC3`: the IC50 in test [1] was found to be 0.087 µM; with HCT-116, 0.32 µM.

Take `O=C1NC(=O)c2c1c1c3ccc(CN4CCNCC4)cc3[nH]c1c1c2c2cccc3c2n1CCC3`: the IC50 in test [1] is 0.065 µM; with HCT-116, over 10 µM.

Turning to `O=C1NC(=O)c2c1c1c3ccc(CN4CCCC4)cc3[nH]c1c1c2c2cccc3c2n1CCC3`, the IC50 in test [1] worked out at 0.05 µM; with HCT-116 it was 0.17 µM.

With `O=C1NC(=O)c2c1c1c3ccc(CN4CCCNCC4)cc3[nH]c1c1c2c2cccc3c2n1CCC3`, the IC50 in test [1] is 0.079 µM; with HCT-116 it was 7.6 µM.

In the case of `O=C1NC(=O)c2c1c1c3ccc(Cl)cc3[nH]c1c1c2c2cccc3c2n1CCC3`, the concentration for half-maximal inhibition (IC50) is 0.11 µM in test [1], over 0.2 µM in test [2] and 0.78 µM with HCT-116.

Take `O=C1NC(=O)c2c1c1c3ccccc3[nH]c1c1c2c2cccc3c2n1CCC3`: the values for the IC50 (in test [1]; in test [2]; with HCT-116) were 0.11 µM, over 1 µM and 1.6 µM, respectively.

With `O=C1NC(=O)c2c1c1c3ccc(C(F)(F)F)cc3[nH]c1c1c2c2cccc3c2n1CCC3`, the IC50 was 0.29 µM in test [1], over 2 µM in test [2] and 1.48 µM in the test on HCT-116.

On to `O=C1NC(=O)c2c1c1c3ccc(CN4CCC4)cc3[nH]c1c1c2c2cccc3c2n1CCC3`, for which the IC50 was found to be 0.075 µM in test [1] and 0.23 µM in the test on HCT-116.
